# Laboratory results reported in patent US20250129370A1, “METHOD FOR REDUCING HEPATIC TRIGLYCERIDES” (ADAERATA, LIMITED PARTNERSHIP, priority 2022, published 2025).
# Legend:
# hTfR1 = test: Western blot of hTfR1 protein in Huh7 cells co-transfected with miR-125a-5p vector; format: cell-based, human
# From the text: FIGS. 31A-B. Western blot (FIG. 31A) and quantitative (FIG. 31B) analysis of the cellular expression of human TfR1 after the co-transfection of the miR-125a-5p and TfR1-overexpressing vectors in Huh7 cells. No direct effect by miR-125a-5p on TfR1 expression was observed. Here miR-125a-5p was overexpressed at different plasmid DNA ratios of PCSK7: miRNA: 1:2 (2×), 1:3 (3×), and 1:5 (5×). X stands for vector DNA fold for miR-125-5p compared to vector expressing PC7.
# In the next step, the effect of miR-125a-5p on PC7 function was determined. […] Thereafter, the impact of miR-125a-5p on the enzymatic function of PC7 was assessed by co-transfecting Huh7 cells with the miR-125a-5p-overexpressing vector, with that coding for the full length of PCSK7, and a plasmid encoding hTfR1 (Guillemot et al., 2013; Durand et al., 2020). […]
# Subsequently, proteins were isolated with an ice-cold RIPA buffer (1×), comprising 50 mM of Tris hydrochloride (pH 8), 150 mM of sodium chloride, 0.1% sodium dodecyl sulfate, 1% Nonidet P40, 0.25% sodium deoxycholate, and a cocktail of protease inhibitors (Roche, Oakville, ON, Canada). […] Both PC7 and TfR1 were C-terminally tagged with V5 and detected with a V5-monoclonal antibody (Invitrogen) and membranes were incubated with appropriate primary and secondary antibodies, as reported (Guillemot et al., 2013). […]
# PCSK7 mRNA = PCSK7 mRNA qPCR after miRNA overexpression in Huh7 cells; format: cell-based, human; settings: Huh7, 48 hours following transfection, vs mock vector
# Method: RNA was isolated from the cells with the TRIzol™ Reagent (Invitrogen, USA) according to the manufacturer's instructions. The RNA samples were treated with RNase-free DNase I (Fermentas, USA) to eliminate any possible DNA contamination. Reverse transcription was performed using the PrimeScript™ First Strand cDNA Synthesis Kit (Takara, Japan) following the manufacturer's protocol. Briefly, one unit of the DNase I enzyme, 1 μL of a buffer, and 1 μg of total RNA were incubated for 30 minutes at 37° C. Then, 1 μL of 50 mM EDTA was added for enzyme inactivation and incubated at 65° C. for 10 minutes. Subsequently, 5 μL of DNase-treated RNA was added to the mix of 0.5 μL of the reverse-transcriptase enzyme, 2 μL of the reverse-transcriptase buffer, and 1 μL of a random hexamer and incubated for 15 minutes at 37° C., followed by 5 seconds at 85° C. for enzyme inactivation. Stem-loop RT-qPCR method was applied for evaluating the expression of miRNAs (Kramer, 2011). […]
# All the reactions were repeated in duplicates. Next, melt curves were analyzed, with the mean threshold cycles used for further analyses. The relative expressions of the miRNAs and PCSK7 to RNU48 small nuclear RNA and/or GAPDH and β2m were calculated, respectively, via the 2-ΔΔCt method. […]
substance,measurement,setting,value
"miR-125a-5p: miRNA targeting PCSK7 3′-UTR and exons 14 and 15, overexpressed from pEGFP-C1 precursor vector (UCCCUGAGACCCUUUAACCUGUGA; miRNA expressed from a pEGFP-C1 precursor vector, further chemistry not given here)",expression level of the hTfR1 protein,hTfR1,exerted no effect
same,effect on expression of PCSK7 mRNA,PCSK7 mRNA,did not reach statistical significance
